Measurements from patent US20240108610A1, “RECTAL ADMINISTRATION OF ROFLUMILAST FOR THE TREATMENT OF CROHN'S DISEASE” (King Abdulaziz University, priority 2022, published 2024).

Legend:
Type in all cases: in vivo, rat
[1] = tested on: trinitrobenzenesulfonic acid (TNBS)-induced colitis; assay: Disease activity score in TNBS-induced chronic colitis; conditions: oral, once daily for 15 days; sulfasalazine 500 mg/kg, roflumilast 5 mg/kg; vs TNBS group
Description: Chronic colitis was induced by weekly rectal injections of increasing doses of TNBS over 6 weeks (15, 30, 45, 60, 60, and 60 mg from day 0 to day 35), as previously described (4,12). Briefly, after food deprivation for 24 h, rats were anesthetized with an intraperitoneal injection of 1% isoflurane. TNBS was dissolved in ethanol (50%) and instilled into the colon using a cannula (0.25 mL), and then the rats were held upside down for 3 min to prevent escape of the intracolonic TNBS. Roflumilast was dissolved in dimethyl sulfoxide and diluted in 0.5% carboxymethyl cellulose sodium to a final concentration of 5.0 mg·kg^−1·day^−1 as previously described (13). […] At the end of the treatment period, the rats were evaluated with the colitis activity score. […] At the end of the 15-day treatment period, the rats were sacrificed by cervical dislocation, and the colon was isolated, cleaned of feces, and measured for weight and length. Colonic myeloperoxidase (MPO) activity and glutathione (GSH) and malonaldehyde (MDA) levels were measured. […] The colitis activity index was determined to evaluate the activity of intestinal inflammation as previously described with a slight modification (16). […]

[2] = tested on: IL-6; assay: Serum IL-6 ELISA in TNBS-induced colitis; conditions: means±SE, n = 8
Description: Chronic colitis was induced by weekly rectal injections of increasing doses of TNBS over 6 weeks (15, 30, 45, 60, 60, and 60 mg from day 0 to day 35), as previously described (4,12). Briefly, after food deprivation for 24 h, rats were anesthetized with an intraperitoneal injection of 1% isoflurane. TNBS was dissolved in ethanol (50%) and instilled into the colon using a cannula (0.25 mL), and then the rats were held upside down for 3 min to prevent escape of the intracolonic TNBS. Roflumilast was dissolved in dimethyl sulfoxide and diluted in 0.5% carboxymethyl cellulose sodium to a final concentration of 5.0 mg·kg^−1·day^−1 as previously described (13). Five groups of rats (n=8) were established: normal control (NC group), TNBS-treated (TNBS group, positive control), and three TNBS-treated groups that received oral sulfasalazine (SS group, 500 mg/kg) (14), oral roflumilast (by gastric gavage, OR group, 5 mg/kg), or rectal roflumilast (RR group, 5 mg/kg). Treatments were administered once daily in a volume of 200 μL for 15 days starting 48 h after the induction of colitis (from day 37) (15), and the control rats received equal amounts of vehicle. At the end of the treatment period, the rats were evaluated with the colitis activity score. To detect the effects of the treatments on systemic inflammatory processes, blood was collected for measurements of the proinflammatory mediators TNF-α, IL-2, and IL-6. At the end of the 15-day treatment period, the rats were sacrificed by cervical dislocation, and the colon was isolated, cleaned of feces, and measured for weight and length. Colonic myeloperoxidase (MPO) activity and glutathione (GSH) and malonaldehyde (MDA) levels were measured. The colon was examined macroscopically for gross changes and microscopically in sections stained with hematoxylin and eosin (H&E), Masson trichrome, and Periodic Acid Schiff (PAS) stains as well as KI-67 and TNF-α immunostaining. Blood was collected through cardiac puncture. The serum was obtained and stored at −80° C. until analysis. […]

[3] = tested on: trinitrobenzenesulfonic acid (TNBS)-induced colitis; assay: Histopathological examination of colonic sections (H&E, Masson trichrome, PAS)
Description: Chronic colitis was induced by weekly rectal injections of increasing doses of TNBS over 6 weeks (15, 30, 45, 60, 60, and 60 mg from day 0 to day 35), as previously described (4,12). Briefly, after food deprivation for 24 h, rats were anesthetized with an intraperitoneal injection of 1% isoflurane. TNBS was dissolved in ethanol (50%) and instilled into the colon using a cannula (0.25 mL), and then the rats were held upside down for 3 min to prevent escape of the intracolonic TNBS. Roflumilast was dissolved in dimethyl sulfoxide and diluted in 0.5% carboxymethyl cellulose sodium to a final concentration of 5.0 mg·kg^−1·day^−1 as previously described (13). Five groups of rats (n=8) were established: normal control (NC group), TNBS-treated (TNBS group, positive control), and three TNBS-treated groups that received oral sulfasalazine (SS group, 500 mg/kg) (14), oral roflumilast (by gastric gavage, OR group, 5 mg/kg), or rectal roflumilast (RR group, 5 mg/kg). Treatments were administered once daily in a volume of 200 μL for 15 days starting 48 h after the induction of colitis (from day 37) (15), and the control rats received equal amounts of vehicle. At the end of the treatment period, the rats were evaluated with the colitis activity score. To detect the effects of the treatments on systemic inflammatory processes, blood was collected for measurements of the proinflammatory mediators TNF-α, IL-2, and IL-6. At the end of the 15-day treatment period, the rats were sacrificed by cervical dislocation, and the colon was isolated, cleaned of feces, and measured for weight and length. Colonic myeloperoxidase (MPO) activity and glutathione (GSH) and malonaldehyde (MDA) levels were measured. The colon was examined macroscopically for gross changes and microscopically in sections stained with hematoxylin and eosin (H&E), Masson trichrome, and Periodic Acid Schiff (PAS) stains as well as KI-67 and TNF-α immunostaining. The colonic segments were fixed in 10% buffered formalin and embedded in paraffin. Afterwards, 3-5-μm-thick sections were made and stained with H&E, Masson's trichrome for collagen, and PAS for […] and mucopolysaccharides. The severity of the lesions was evaluated by a blinded histopathologist as normal, mild, moderate, or marked injury (21).

[4] = oral, once daily for 15 days, SS 500 mg/kg, OR 5 mg/kg
[5] = rectal, 5 mg/kg once daily for 15 days
[6] = oral, once daily for 15 days, sulfasalazine 500 mg/kg, roflumilast 5 mg/kg

Row | SMILES | Disease activity score [1] | serum level of IL-6 [2, 4] | serum level of IL-6 [2, 5] | PAS-stained goblet cells [3, 6] | collagen deposition, Masson trichrome [3, 6] | colonic sections stained with H&E, improvement [3, 6] | PAS-stained goblet cells [3, 5] | collagen deposition, Masson trichrome [3, 5] | colonic sections stained with H&E, improvement [3, 5]
1 | O=C(Nc1c(Cl)cncc1Cl)c1ccc(OC(F)F)c(OCC2CC2)c1 [roflumilast] | decreased the score more than rectal roflumilast | 21.85 ± 1.00^j, k, l pg/mL | 28.93 ± 0.50^j, k pg/mL | moderate population | moderate decrease | moderate improvement | small population | mild decrease | mild improvement
2 | O=C(O)c1cc(/N=N/c2ccc(S(=O)(=O)Nc3ccccn3)cc2)ccc1O [sulfasalazine] | greatest decrease | 16.14 ± 1.13^k, m pg/mL |  | nearly normal population | marked decrease | marked improvement |  |  | 
